Measurements published in paper PMC11189555, “Aryl amino acetamides prevent Plasmodium falciparum ring development via targeting the lipid-transfer protein PfSTART1” (Nature Communications, 2024).
Several values for one entry are separate records, joined by “and”; a condition that tells them apart may be missing. Equal entries are not always repeated. Where two headings read alike, the source gives them in different places.

Test system: SLI-N330K parasites
Experiment: Growth inhibition assay (72 h, LDH activity)
Type: cell-based, Plasmodium falciparum
Settings: for Growth inhibition, (1 - av / DMSO) x 100: Fig 2B source data, per biological replicate; for EC50: Plasmodium falciparum
Method: Parasite growth assays with inhibitory compounds were performed as per[11] and are fully described in the Supplementary Information.
Molecular biology and transfection of P. falciparum: Selection Linked Integration […]
To introduce the PfSTART1 mutations, the second half of the coding sequence of pfstart1 (PF3D7_0104200), was recodonised without introns to the bias of Saccharomyces cerevisiae containing either WT, N309K or N330K mutations, and synthesised as gBlock fragments (Integrated DNA Technologies). The first 819 bp of the 5′ native sequence of pfstart1 was amplified from gDNA, to form the 5’ homology block (5’ HB). The 3′ recodonised gBlock fragment comprising of the last 552 bp of either the WT, N309K or N330K pfstart1 to form the ‘recodon’ block (primers listed in Table S2). The 5’ HB and recodon products were sewn together by overlapping PCR to reconstitute the full coding sequence of pfstart1. These blocks (WT/N309K/N330K) were digested with BglII/PstI, and inserted into the parasite vector p-HA-2A-Neo-glmS
1. This plasmid contains an in -frame haemagglutinin (HA) epitope for protein identification and a P2A peptide (2A) to skip continuous peptide bond synthesis of a downstream neomycin resistance gene ( NeoR).
Parasites containing the transfected DNA were selected using 2.5 nM WR99210 (Jacobus). To select for parasites in which single crossover integration had occurred into the pfstart1 locus, parasites were treated with 400 μg/mL G418 (geniticin, Sigma Aldrich) for 14 days: only parasites that have integrated the construct into their genome expressed the neomycin resistance gene together with the PfSTART1 protein.
Parasite lines were cloned using limiting dilution. These clones were then tested on Western Blot (for correct HA-tagging and protein size), and correct integration and sequence were tested by PCR analysis: PCR on the gDNA was conducted using the primers START_5’UTR.F and START_Seq.R (Table S2). […]
Growth inhibition assays. Synchronised ring-stage parasites (0.3-0.6% parasitemia, 2% haematocrit) were grown for 72 h in a serial-dilution of the compound under […]
and compound 4. Note that M-833 was first purchased from MolPort (MolPort -002-267-916) then made in-house at WEHI: the differences observed in EC50s across experiments are attributed to the different batches of M -833. For some experiments, 0, 0.25 or 2.5 mM of glucosamine (GlcN) was also added. Experiments were set up in technical duplicates or triplicates. Following a freeze -thaw cycle, lactate dehydrogenase (LDH) activity was assessed as an indicator of parasite growt h 5. 30 μL of parasite culture was incubated for 30 min in the dark with 75 μL Malstat mixture (0.1 M Tris pH 9.0, 20 g/L lactic acid, pH 7.5, 0.2% Triton-X100, 0.5 g/L acetylpyridine adenine dinucleotide (APAD, Sigma), 200 μg/mL nitroblue tetrazolium (NBT; Sigma), 1 μg/mL phenozine ethosulfate (PES; Sigma)). Absorbance was then measured at 650 nm, transformed using the formula below, plotted against the logarithm of the concentrations, and a non-linear regression (log(inhibitor) vs. response, variable slope) was calculated using GraphPad Prism to assess the half-inhibitory […]
Growth inhibition % = (1 − average(sample)− average(uRBC)) ∗ 100 […]
The DMSO samples were also used to assess growth of parasite in the presence of 0.25 and 2.5 mM GlcN (normalised by DMSO in 0 mM GlcN).
Egress, invasion & recovery assay. To measure egress, invasion and follow up recovery in the presence of different compounds, we adapted the method developed in6, using Hyp1-Nluc parasites7. These parasites episomally express the exported PEXEL protein Hyp1 (PF3D7_0113300) tagged with a NanoLuc luciferase (NLuc) and were selected with 2.5 nM WR99210 (Jacobus). Highly synchronised schizonts were obtained using ML10 (LifeArc) and sorbitol synchronisation, and Percoll-purified (the culture was gently layered over 67% Percoll (Cytiva) in RPMI, and centrifuged for 15 min at 1500 g and the schizont layer was collected and washed). […]

Cc1cc(Cl)c(S(=O)(=O)N2CCCC2)cc1OCC(=O)NC1CCCCC1 [M-833]
sample/DMSO (0.123457 uM M-833, START(N330K), 0.25 mM GlcN, biological replicate 4): -2.981 | sample/DMSO (0.123457 uM M-833, START(N330K), 2.5 mM GlcN, biological replicate 1): 25.4075 | sample/DMSO (0.123457 uM M-833, START(N330K), 2.5 mM GlcN, biological replicate 2): 9.59 | sample/DMSO (0.123457 uM M-833, START(N330K), 2.5 mM GlcN, biological replicate 3): 1.226 | sample/DMSO (0.123457 uM M-833, START(N330K), 2.5 mM GlcN, biological replicate 4): -0.1405 | sample/DMSO (0.37037 uM M-833, START(N330K), 0 mM GlcN, biological replicate 1): 19.3431 | sample/DMSO (0.37037 uM M-833, START(N330K), 0 mM GlcN, biological replicate 2): 2.274 | sample/DMSO (0.37037 uM M-833, START(N330K), 0 mM GlcN, biological replicate 3): 7.66 | sample/DMSO (0.37037 uM M-833, START(N330K), 0 mM GlcN, biological replicate 4): -3.175 | sample/DMSO (0.37037 uM M-833, START(N330K), 0.25 mM GlcN, biological replicate 1): 19.0968 | sample/DMSO (0.37037 uM M-833, START(N330K), 0.25 mM GlcN, biological replicate 2): 15.8158 | sample/DMSO (0.37037 uM M-833, START(N330K), 0.25 mM GlcN, biological replicate 3): 6.853 | sample/DMSO (0.37037 uM M-833, START(N330K), 0.25 mM GlcN, biological replicate 4): -2.547 | sample/DMSO (0.37037 uM M-833, START(N330K), 2.5 mM GlcN, biological replicate 1): 28.3178 | sample/DMSO (0.37037 uM M-833, START(N330K), 2.5 mM GlcN, biological replicate 2): 11.3273 | sample/DMSO (0.37037 uM M-833, START(N330K), 2.5 mM GlcN, biological replicate 3): 5.76 | sample/DMSO (0.37037 uM M-833, START(N330K), 2.5 mM GlcN, biological replicate 4): 6.979 | sample/DMSO (1.11111 uM M-833, START(N330K), 0 mM GlcN, biological replicate 1): 22.4532 | sample/DMSO (1.11111 uM M-833, START(N330K), 0 mM GlcN, biological replicate 2): 7.959 | sample/DMSO (1.11111 uM M-833, START(N330K), 0 mM GlcN, biological replicate 3): 16.7199 | sample/DMSO (1.11111 uM M-833, START(N330K), 0 mM GlcN, biological replicate 4): 4.969 | sample/DMSO (1.11111 uM M-833, START(N330K), 0.25 mM GlcN, biological replicate 1): 24.0145 | sample/DMSO (1.11111 uM M-833, START(N330K), 0.25 mM GlcN, biological replicate 2): 17.1338 | sample/DMSO (1.11111 uM M-833, START(N330K), 0.25 mM GlcN, biological replicate 3): 18.125 | sample/DMSO (1.11111 uM M-833, START(N330K), 0.25 mM GlcN, biological replicate 4): 8.022 | sample/DMSO (1.11111 uM M-833, START(N330K), 2.5 mM GlcN, biological replicate 1): 36.9907 | sample/DMSO (1.11111 uM M-833, START(N330K), 2.5 mM GlcN, biological replicate 2): 15.1494 | sample/DMSO (1.11111 uM M-833, START(N330K), 2.5 mM GlcN, biological replicate 3): 17.4656 | sample/DMSO (1.11111 uM M-833, START(N330K), 2.5 mM GlcN, biological replicate 4): 7.728 | Growth inhibition, (1 - av / DMSO) x 100 (SLI-N330K, M-833 conc 0.00304832 (unit not given)): -17.2829% and -4.43% and -6.85% | Growth inhibition, (1 - av / DMSO) x 100 (SLI-N330K, M-833 conc 0.00914495 (unit not given)): -20.2465% and -6.679% and -8.021% | Growth inhibition, (1 - av / DMSO) x 100 (SLI-N330K, M-833 conc 0.0274348 (unit not given)): -22.4472% and -9.048% and -10.9244% | Growth inhibition, (1 - av / DMSO) x 100 (SLI-N330K, M-833 conc 0.0823045 (unit not given)): -27.3474% and -6.202% and -4.991% | Growth inhibition, (1 - av / DMSO) x 100 (SLI-N330K, M-833 conc 0.246914 (unit not given)): -20.5399% and -4.464% and 0.9677% | Growth inhibition, (1 - av / DMSO) x 100 (SLI-N330K, M-833 conc 0.740741 (unit not given)): -11.4437% and -0.9712% and 2.699% | Growth inhibition, (1 - av / DMSO) x 100 (SLI-N330K, M-833 conc 2.22222 (unit not given)): 10.9155% and 8.4% and 12.8088% | Growth inhibition, (1 - av / DMSO) x 100 (SLI-N330K, M-833 conc 6.66667 (unit not given)): 48.6796% and 44.0109% and 38.2735% | Growth inhibition, (1 - av / DMSO) x 100 (SLI-N330K, M-833 conc 20 (unit not given)): 69.4542% and 76.7081% and 72.5236% | sample/DMSO (M-833 3.33333 uM, START(N330K), 0 mM GlcN, biological replicates 1-4): 23.2009 and 27.766 and 32.1009 and 22.2063 | sample/DMSO (M-833 3.33333 uM, START(N330K), 0.25 mM GlcN, biological replicates 1-4): 36.1845 and 29.2292 and 28.75 and 22.2222 | sample/DMSO (M-833 3.33333 uM, START(N330K), 2.5 mM GlcN, biological replicates 1-4): 45.6636 and 29.3607 and 33.6678 and 26.3232 | sample/DMSO (M-833 10 uM, START(N330K), 0 mM GlcN, biological replicates 1-4): 60.4059 and 63.1206 and 59.1558 and 63.3004 | sample/DMSO (M-833 10 uM, START(N330K), 0.25 mM GlcN, biological replicates 1-4): 65.2315 and 63.5636 and 70.0446 and 58.3469 | sample/DMSO (M-833 10 uM, START(N330K), 2.5 mM GlcN, biological replicates 1-4): 68.4226 and 62.1265 and 64.6971 and 47.1194 | EC50 (Fig 2B, SLI-N330K, 72 h, n = 3, unit only in x-axis title, read-out: EC50 (95% confidence interval)): 6.27 µM | EC50 (Fig 3C, SLI-N330K, 2.5 mM GlcN, n = 4, unit on plot axis, read-out: EC50 M-833 (95% confidence interval)): > 3 µM | fold more resistant than the 3D7 parental parasites (SLI-N330K, Fig 2B): 64 fold
